Measurements: PubChem BioAssay (NCI)
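The compound was tested at five concentrations on cells cultured in 96-well plates, with a 48-hour exposure period. TGI denotes the concentration required for complete inhibition of growth.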

Key:
Experiment in all cases: NCI-60 cell line screen, 48 h
[1] = test system: 786-0 renal
[2] = test system: A498 renal
[3] = test system: A549 NSCLC
[4] = test system: ACHN renal
[5] = test system: BT-549 breast
[6] = test system: CAKI-1 renal
[7] = test system: COLO 205 colon
[8] = test system: DU-145 prostate
[9] = test system: EKVX NSCLC
[10] = test system: HCT-116 colon
[11] = test system: HCT-15 colon
[12] = test system: HL-60(TB) leukemia
[13] = test system: HOP-62 NSCLC
[14] = test system: HOP-92 NSCLC
[15] = test system: HS 578T breast
[16] = test system: HT29 colon
[17] = test system: IGROV1 ovarian
[18] = test system: KM12 colon
[19] = test system: M14 melanoma
[20] = test system: MALME-3M melanoma
[21] = test system: MCF7 breast
[22] = test system: MDA-MB-231 breast
[23] = test system: MDA-MB-435
[24] = test system: MDA-N
[25] = test system: MOLT-4 leukemia
[26] = test system: NCI-H226 lung
[27] = test system: NCI-H23 lung
[28] = test system: NCI-H522 lung
[29] = test system: NCI/ADR-RES ovarian
[30] = test system: OVCAR-3 ovarian
[31] = test system: OVCAR-4 ovarian
[32] = test system: OVCAR-5 ovarian
[33] = test system: OVCAR-8 ovarian
[34] = test system: PC-3 prostate
[35] = test system: RPMI-8226 leukemia
[36] = test system: SF-268 CNS
[37] = test system: SF-295 CNS
[38] = test system: SF-539 CNS
[39] = test system: SK-MEL-2 melanoma
[40] = test system: SK-MEL-28 melanoma
[41] = test system: SK-MEL-5 melanoma
[42] = test system: SK-OV-3 ovarian
[43] = test system: SN12C renal
[44] = test system: SNB-19 CNS
[45] = test system: SR leukemia
[46] = test system: SW-620 colon
[47] = test system: T-47D breast
[48] = test system: U251 CNS
[49] = test system: UACC-62 melanoma
[50] = test system: UO-31 renal
[51] = test system: K-562 leukemia
[52] = test system: LOX IMVI melanoma
[53] = test system: NCI-H460 lung
[54] = test system: RXF 393 renal
[55] = test system: SNB-75 CNS
[56] = test system: TK-10 renal
[57] = test system: UACC-257 melanoma
[58] = test system: CCRF-CEM leukemia
[59] = test system: HCC-2998 colon

In the case of `C=CCN1C[C@@H](C)N([C@@H](c2ccccc2)c2ccc(C(=O)N(CC)CC)cc2)C[C@@H]1C`, the TGI [1] is reported as > 100 µM, the TGI [2] is reported as > 100 µM and the TGI [3] is reported as > 100 µM. The TGI [4] was > 100 µM, the TGI [5] was > 100 µM and the TGI [6] was > 100 µM. For the same compound, the TGI [7] was > 100 µM, the TGI [8] was > 100 µM and the TGI [9] was > 100 µM. The TGI [10] was > 100 µM, the TGI [11] was > 100 µM and the TGI [12] was > 100 µM. For the same compound, the TGI [13] was > 100 µM, the TGI [14] was 89 µM and the TGI [15] was > 100 µM. The TGI [16] was > 100 µM, the TGI [17] was > 100 µM and the TGI [18] was > 100 µM. The TGI [19] was > 100 µM, the TGI [20] was > 100 µM and the TGI [21] was > 100 µM. For the same compound, the TGI [22] was > 100 µM, the TGI [23] was > 100 µM and the TGI [24] was > 100 µM. The TGI [25] was > 100 µM, the TGI [26] was > 100 µM and the TGI [27] was > 100 µM. For the same compound, the TGI [28] was > 100 µM, the TGI [29] was > 100 µM and the TGI [30] was > 100 µM. The TGI [31] was > 100 µM, the TGI [32] was > 100 µM and the TGI [33] was > 100 µM. The TGI [34] was > 100 µM, the TGI [35] was > 100 µM and the TGI [36] was > 100 µM. For the same compound, the TGI [37] was > 100 µM, the TGI [38] was > 100 µM and the TGI [39] was > 100 µM. The TGI [40] was > 100 µM, the TGI [41] was > 100 µM and the TGI [42] was > 100 µM. The TGI [43] was > 100 µM, the TGI [44] was > 100 µM and the TGI [45] was > 100 µM. For the same compound, the TGI [46] was > 100 µM, the TGI [47] was > 100 µM and the TGI [48] was > 100 µM. The TGI [49] was > 100 µM and the TGI [50] was > 100 µM.
With `COc1ccc(OC)c(-c2cc(C(=O)O)c3cc4ccccc4cc3n2)c1` the TGI [1] was > 100 µM, the TGI [2] was > 100 µM and the TGI [3] was > 100 µM. For the same compound, the TGI [4] was > 100 µM, the TGI [5] was > 100 µM and the TGI [6] was > 100 µM. The TGI [7] was > 100 µM, the TGI [8] was > 100 µM and the TGI [9] was > 100 µM. For the same compound, the TGI [10] was > 100 µM, the TGI [11] was > 100 µM and the TGI [12] was > 100 µM. The TGI [13] was > 100 µM, the TGI [14] was > 100 µM and the TGI [15] was > 100 µM. The TGI [16] was > 100 µM, the TGI [17] was > 100 µM and the TGI [51] was > 100 µM. The TGI [18] was > 100 µM, the TGI [52] was > 100 µM and the TGI [19] was > 100 µM. For the same compound, the TGI [20] was > 100 µM, the TGI [21] was > 100 µM and the TGI [22] was > 100 µM. For the same compound, the TGI [23] was > 100 µM, the TGI [24] was > 100 µM and the TGI [25] was > 100 µM. The TGI [26] was > 100 µM, the TGI [27] was > 100 µM and the TGI [53] was > 100 µM. The TGI [28] was > 100 µM, the TGI [29] was > 100 µM and the TGI [30] was > 100 µM. For the same compound, the TGI [31] was > 100 µM, the TGI [32] was > 100 µM and the TGI [33] was > 100 µM. The TGI [34] was > 100 µM, the TGI [35] was > 100 µM and the TGI [54] was > 100 µM. For the same compound, the TGI [36] was > 100 µM, the TGI [37] was > 100 µM and the TGI [38] was > 100 µM. For the same compound, the TGI [39] was > 100 µM, the TGI [40] was > 100 µM and the TGI [41] was > 100 µM. For the same compound, the TGI [42] was > 100 µM, the TGI [43] was > 100 µM and the TGI [44] was > 100 µM. For the same compound, the TGI [55] was > 100 µM, the TGI [45] was > 100 µM and the TGI [46] was > 100 µM. For the same compound, the TGI [47] was > 100 µM, the TGI [56] was > 100 µM and the TGI [48] was > 100 µM. The TGI [57] was > 100 µM and the TGI [49] was > 100 µM.
`Cc1ccc(Cc2nn(C)c(=O)n2-n2cccc2)cc1` was tested, and the TGI [1] was > 100 µM, the TGI [2] was > 100 µM and the TGI [3] was > 100 µM. The TGI [4] was > 100 µM, the TGI [5] was > 100 µM and the TGI [6] was > 100 µM. The TGI [58] was > 100 µM, the TGI [7] was > 100 µM and the TGI [8] was > 100 µM. The TGI [9] was > 100 µM, the TGI [59] was > 100 µM and the TGI [10] was > 100 µM. The TGI [11] was > 100 µM, the TGI [13] was > 100 µM and the TGI [15] was > 100 µM. The TGI [16] was > 100 µM, the TGI [17] was > 100 µM and the TGI [51] was > 100 µM. The TGI [18] was > 100 µM, the TGI [52] was > 100 µM and the TGI [19] was > 100 µM. The TGI [20] was > 100 µM, the TGI [21] was > 100 µM and the TGI [22] was > 100 µM. For the same compound, the TGI [23] was > 100 µM, the TGI [24] was > 100 µM and the TGI [25] was > 100 µM. For the same compound, the TGI [26] was > 100 µM, the TGI [53] was > 100 µM and the TGI [28] was > 100 µM. The TGI [29] was > 100 µM, the TGI [30] was > 100 µM and the TGI [31] was > 100 µM. For the same compound, the TGI [32] was > 100 µM, the TGI [33] was > 100 µM and the TGI [34] was > 100 µM. For the same compound, the TGI [35] was > 100 µM, the TGI [54] was > 100 µM and the TGI [36] was > 100 µM. The TGI [37] was > 100 µM, the TGI [39] was > 100 µM and the TGI [40] was > 100 µM. The TGI [41] was > 100 µM, the TGI [42] was > 100 µM and the TGI [43] was > 100 µM. The TGI [44] was > 100 µM, the TGI [55] was > 100 µM and the TGI [45] was > 100 µM. The TGI [46] was > 100 µM, the TGI [47] was > 100 µM and the TGI [56] was > 100 µM. For the same compound, the TGI [48] was > 100 µM, the TGI [57] was > 100 µM and the TGI [49] was > 100 µM. For the same compound, the TGI [50] was > 100 µM.
With `COC(=O)CCSC1=CC(=O)c2nc3ccccc3c3ccnc1c23` the TGI [1] was 40.2 µM, the TGI [2] was > 100 µM and the TGI [3] was > 100 µM. It also gave a TGI [4] of 48.3 µM, a TGI [5] of 33 µM and a TGI [6] of 42.5 µM. The TGI [58] was > 26.6 µM, the TGI [7] was > 47 µM and the TGI [8] was 48.1 µM. The TGI [9] was 40.7 µM, the TGI [59] was 27.6 µM and the TGI [10] was 42.2 µM. The TGI [11] was 27.9 µM, the TGI [12] was > 24 µM and the TGI [13] was > 100 µM. The TGI [14] was > 55.4 µM, the TGI [15] was 67.8 µM and the TGI [16] was 34.1 µM. For the same compound, the TGI [17] was 34.5 µM, the TGI [51] was > 42 µM and the TGI [18] was 34.8 µM. For the same compound, the TGI [19] was 47.2 µM, the TGI [21] was > 50.2 µM and the TGI [22] was > 70.7 µM. The TGI [23] was > 27.5 µM, the TGI [24] was 87.2 µM and the TGI [25] was 50.4 µM. For the same compound, the TGI [26] was > 100 µM, the TGI [27] was 32 µM and the TGI [53] was 41.3 µM. For the same compound, the TGI [28] was 3.74 µM, the TGI [29] was 46.6 µM and the TGI [30] was 11.4 µM. The TGI [31] was 41.9 µM, the TGI [32] was > 71.4 µM and the TGI [33] was > 56.3 µM. The TGI [34] was 36.7 µM, the TGI [35] was > 100 µM and the TGI [54] was 37.1 µM. The TGI [36] was 34.3 µM, the TGI [37] was > 100 µM and the TGI [38] was 29.8 µM. The TGI [39] was > 70.1 µM, the TGI [40] was 45.9 µM and the TGI [41] was > 53.5 µM. The TGI [42] was > 100 µM, the TGI [43] was 40.7 µM and the TGI [44] was > 100 µM. The TGI [55] was > 100 µM, the TGI [45] was > 51.5 µM and the TGI [46] was > 53.1 µM. For the same compound, the TGI [47] was 44.1 µM, the TGI [56] was 18.9 µM and the TGI [48] was > 100 µM. The TGI [57] was 33 µM, the TGI [49] was 21.7 µM and the TGI [50] was 31.7 µM.
